Measured values from patent US20230406865A1, “CRYSTAL FORM OF FREE BASE OF INHIBITOR CONTAINING BICYCLIC RING DERIVATIVE AND PREPARATION METHOD AND APPLICATION OF CRYSTAL FORM” (SHANGHAI HANSOH BIOMEDICAL CO., LTD., priority 2020, published 2023).

Assays:
[1] = target: T1, KDR kinase (Homo sapiens, UniProt P35968); assay: HTRF kinase activity inhibition, KDR; type: biochemical; details: for IC50: HTRF, ATP at Km; for Ratio (KDR/RET): KDR IC50 / RET IC50
T1 construct: purchased Carna 08-191
Excerpt: 2.2 Experimental Reagents: • KDR kinase was purchased from Carna Company, and the article number was 08-191; • HTRF KinEASE-TK kit was purchased from Cisbio Company, and the article number was 62TK0PEC; • ATP was purchased from Thermofisher Company, and the article number was PV3227; • 384-well plate was purchased from PerkinElmer Company, and the article number was 6007290.
In this experiment, the homogeneous time-resolved fluorescence (HTRF) method was used for the detection of compounds on KDR kinase activity.

[2] = target: T2, RET kinase (Homo sapiens, UniProt P07949); assay: HTRF kinase activity inhibition, RET wild-type; type: biochemical; details: ATP at Km
T2 construct: purchased Carna 08-159
Excerpt: 2.2 Experimental Reagents: • RET enzyme was purchased from Carna Company, and the article number was 08-159; • RET M918T enzyme was purchased from Carna Company, and the article number was 08-508; • KIF5B-RET was purchased from SignalChem Company, the article number was R02-19FG-05; • CCDC6-RET was purchased from SignalChem Company, the article number was R02-19BG-05; • RET V804M enzyme was purchased from Thermofisher Company, and the article number was PV6223; • RET V804L enzyme was purchased from Thermofisher Company, and the article number was PV4397; • HTRF KinEASE-TK kit was purchased from Cisbio Company, and the article number was 62TK0PEC; • ATP was purchased from Thermofisher Company, and the article number was PV3227; • 384-well plate was purchased from PerkinElmer Company, and the article number was 6007290.
In this experiment, a homogeneous time-resolved fluorescence (HTRF) method was used for the detection of compounds on RET kinase activity.

T2 sequence (P07949 29-1114): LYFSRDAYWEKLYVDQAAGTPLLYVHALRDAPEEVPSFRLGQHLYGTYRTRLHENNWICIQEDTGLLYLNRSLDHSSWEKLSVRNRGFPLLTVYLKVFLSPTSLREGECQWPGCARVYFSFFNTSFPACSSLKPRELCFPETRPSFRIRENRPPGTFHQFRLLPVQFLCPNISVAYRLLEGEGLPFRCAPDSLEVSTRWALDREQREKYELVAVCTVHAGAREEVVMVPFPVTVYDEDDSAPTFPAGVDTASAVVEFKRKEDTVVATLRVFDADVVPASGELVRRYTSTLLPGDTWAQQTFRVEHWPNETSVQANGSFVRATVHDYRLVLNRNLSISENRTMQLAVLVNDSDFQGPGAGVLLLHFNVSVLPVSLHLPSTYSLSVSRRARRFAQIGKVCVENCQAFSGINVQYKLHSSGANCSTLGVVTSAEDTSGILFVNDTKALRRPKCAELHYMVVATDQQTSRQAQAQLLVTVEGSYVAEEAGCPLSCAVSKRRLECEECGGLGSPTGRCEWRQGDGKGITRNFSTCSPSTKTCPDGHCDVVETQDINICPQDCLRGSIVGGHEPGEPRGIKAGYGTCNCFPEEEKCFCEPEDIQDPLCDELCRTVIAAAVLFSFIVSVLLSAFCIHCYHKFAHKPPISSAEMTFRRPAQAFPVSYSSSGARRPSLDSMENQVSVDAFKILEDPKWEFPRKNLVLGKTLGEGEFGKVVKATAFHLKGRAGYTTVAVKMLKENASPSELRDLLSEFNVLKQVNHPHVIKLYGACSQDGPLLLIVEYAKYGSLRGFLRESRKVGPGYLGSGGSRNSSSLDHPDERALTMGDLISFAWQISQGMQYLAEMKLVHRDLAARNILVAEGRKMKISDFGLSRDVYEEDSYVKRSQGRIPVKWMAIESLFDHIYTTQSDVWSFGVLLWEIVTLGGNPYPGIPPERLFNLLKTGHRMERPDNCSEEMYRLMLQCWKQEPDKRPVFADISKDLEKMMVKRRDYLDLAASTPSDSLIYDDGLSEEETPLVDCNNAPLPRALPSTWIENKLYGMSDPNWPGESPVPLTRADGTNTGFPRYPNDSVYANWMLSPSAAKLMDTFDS
T1 sequence (P35968 20-1356): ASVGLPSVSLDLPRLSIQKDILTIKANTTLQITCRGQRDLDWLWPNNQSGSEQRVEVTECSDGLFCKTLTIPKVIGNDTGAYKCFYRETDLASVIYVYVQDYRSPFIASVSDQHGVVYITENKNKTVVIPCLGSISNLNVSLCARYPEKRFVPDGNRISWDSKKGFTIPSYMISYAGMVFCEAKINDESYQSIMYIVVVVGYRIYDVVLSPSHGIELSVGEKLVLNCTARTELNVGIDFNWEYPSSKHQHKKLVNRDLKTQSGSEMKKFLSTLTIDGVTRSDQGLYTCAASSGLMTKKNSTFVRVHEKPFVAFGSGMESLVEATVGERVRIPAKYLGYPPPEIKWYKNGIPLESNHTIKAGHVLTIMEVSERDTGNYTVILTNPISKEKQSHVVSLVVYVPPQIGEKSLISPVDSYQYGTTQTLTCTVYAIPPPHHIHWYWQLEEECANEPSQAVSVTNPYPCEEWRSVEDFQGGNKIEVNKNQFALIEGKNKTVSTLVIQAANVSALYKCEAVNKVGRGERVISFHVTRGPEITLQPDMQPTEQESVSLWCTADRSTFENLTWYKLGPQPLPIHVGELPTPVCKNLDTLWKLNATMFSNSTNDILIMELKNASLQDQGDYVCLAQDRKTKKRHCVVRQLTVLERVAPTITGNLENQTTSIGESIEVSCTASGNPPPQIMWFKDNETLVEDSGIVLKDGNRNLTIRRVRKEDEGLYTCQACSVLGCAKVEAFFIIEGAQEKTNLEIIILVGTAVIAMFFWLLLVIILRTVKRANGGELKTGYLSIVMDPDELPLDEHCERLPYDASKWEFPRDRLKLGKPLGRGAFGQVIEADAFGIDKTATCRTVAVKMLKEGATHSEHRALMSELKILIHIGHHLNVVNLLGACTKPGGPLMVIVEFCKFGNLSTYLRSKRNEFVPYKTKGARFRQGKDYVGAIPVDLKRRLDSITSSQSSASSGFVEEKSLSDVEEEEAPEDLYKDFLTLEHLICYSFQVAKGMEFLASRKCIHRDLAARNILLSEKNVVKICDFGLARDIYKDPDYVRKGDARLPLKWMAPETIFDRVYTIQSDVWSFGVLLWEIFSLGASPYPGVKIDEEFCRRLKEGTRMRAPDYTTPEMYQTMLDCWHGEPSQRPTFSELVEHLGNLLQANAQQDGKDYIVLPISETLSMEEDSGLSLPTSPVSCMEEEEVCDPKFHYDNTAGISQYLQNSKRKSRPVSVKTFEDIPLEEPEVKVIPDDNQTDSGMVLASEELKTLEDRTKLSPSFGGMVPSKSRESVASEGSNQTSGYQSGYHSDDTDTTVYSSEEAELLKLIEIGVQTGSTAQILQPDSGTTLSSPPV

Structure (SMILES)	IC50 [1]	Ratio (KDR/RET) [1]	IC50 [2]
COc1ccc(CN2C3CC2CN(c2ccc(-c4cc(NC(=O)C5(C#N)CC5)cn5ncc(C#N)c45)cn2)C3)cn1 [Embodiment 74, 1-Cyano-N-(3-cyano-4-(6-(6-((6-methoxypyridin-3-yl)methyl)-3,6-diazabicyclo[3.1.1]heptan-3-yl)pyridin-3-yl)pyrazolo[1,5-a]pyridin-6-yl)cyclopropane-1-carboxamide]	247 nM	137	1.8 nM
CC1(NC(=O)c2ncccc2Cl)CCN(c2ccc(-c3cc(N4CC(C(C)(C)O)C4)cn4ncc(C#N)c34)cn2)CC1 [Embodiment 88, 3-Chloro-N-(1-(5-(3-cyano-6-(3-(2-hydroxypropan-2-yl)azetidin-1-yl)pyrazolo[1,5-a]pyridin-4-yl)pyridin-2-yl)-4-methylpiperidin-4-yl)picolinamide]	61 nM	49	1.2 nM
CC1(O)CC2(CN(c3cc(-c4ccc(N5CCC(C)(NC(=O)c6ncccc6Cl)CC5)nc4)c4c(C#N)cnn4c3)C2)C1 [Embodiment 89, 3-Chloro-N-(1-(5-(3-cyano-6-(6-hydroxy-6-methyl-2-azaspiro[3.3]heptan-2-yl)pyrazolo[1,5-a]pyridin-4-yl)pyridin-2-yl)-4-methylpiperidin-4-yl)picolinamide]	8.9 nM	8	1.1 nM

Now from value to compound:

IC50 [1]	Ratio (KDR/RET) [1]	IC50 [2]	Structure (SMILES)
150 nM	136	1.1 nM	CC1(NC(=O)c2ncccc2F)CCN(c2ccc(-c3cc(OCC4(C#N)CC4)cn4ncc(C#N)c34)cn2)CC1 [Embodiment 93, N-(1-(5-(3-Cyano-6-((1-cyanocyclopropyl)methoxy)pyrazolo[1,5-a]pyridin-4-yl)pyridin-2-yl)-4-methylpiperidin-4-yl)-3-fluoropicolinamide]
15.8 nM	22	0.72 nM	CC1(C#N)CN(c2cc(-c3ccc(N4CCC(C)(NC(=O)c5ncccc5Cl)CC4)nc3)c3c(C#N)cnn3c2)C1 [Embodiment 96, 3-Chloro-N-(1-(5-(3-cyano-6-(3-cyano-3-methylazetidin-1-yl)pyrazolo[1,5-a]pyridin-4-yl)pyridin-2-yl)-4-methylpiperidin-4-yl)picolinamide]
